Legend:
human PDE2A1 = human PDE2A1 (Homo sapiens (Human), UniProt O00408); experiment: PDE selectivity IMAP FP assay, human PDE2A1; format: biochemical; details: Human PDE2; Lab B; read-out: Human PDE2 Ki (nM) Lab B
Outline: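 IMAP fluorescence polarization assay; PDE2 substrate 50 nM FAM-cAMP containing 1000 nM cGMP, enzyme diluted for 20% substrate conversion, in 10 mM Tris HCl pH 7.2, 10 mM MgCl2, 1 mM DTT. Reaction 60 min at room temperature, stopped with IMAP binding solution; polarization read after 1 h. Ki reported.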

Rhesus PDE2A3 = Rhesus PDE2A3 (Macaca mulatta, UniProt B3VTJ2); experiment: PDE2 fluorescence polarization (IMAP FP) assay, rhesus PDE2A3; format: biochemical, rhesus macaque; details: Lab B, read-out: Rhesus PDE2 Ki (nM) Lab B
Chain of Rhesus PDE2A3 (B3VTJ2 1-941): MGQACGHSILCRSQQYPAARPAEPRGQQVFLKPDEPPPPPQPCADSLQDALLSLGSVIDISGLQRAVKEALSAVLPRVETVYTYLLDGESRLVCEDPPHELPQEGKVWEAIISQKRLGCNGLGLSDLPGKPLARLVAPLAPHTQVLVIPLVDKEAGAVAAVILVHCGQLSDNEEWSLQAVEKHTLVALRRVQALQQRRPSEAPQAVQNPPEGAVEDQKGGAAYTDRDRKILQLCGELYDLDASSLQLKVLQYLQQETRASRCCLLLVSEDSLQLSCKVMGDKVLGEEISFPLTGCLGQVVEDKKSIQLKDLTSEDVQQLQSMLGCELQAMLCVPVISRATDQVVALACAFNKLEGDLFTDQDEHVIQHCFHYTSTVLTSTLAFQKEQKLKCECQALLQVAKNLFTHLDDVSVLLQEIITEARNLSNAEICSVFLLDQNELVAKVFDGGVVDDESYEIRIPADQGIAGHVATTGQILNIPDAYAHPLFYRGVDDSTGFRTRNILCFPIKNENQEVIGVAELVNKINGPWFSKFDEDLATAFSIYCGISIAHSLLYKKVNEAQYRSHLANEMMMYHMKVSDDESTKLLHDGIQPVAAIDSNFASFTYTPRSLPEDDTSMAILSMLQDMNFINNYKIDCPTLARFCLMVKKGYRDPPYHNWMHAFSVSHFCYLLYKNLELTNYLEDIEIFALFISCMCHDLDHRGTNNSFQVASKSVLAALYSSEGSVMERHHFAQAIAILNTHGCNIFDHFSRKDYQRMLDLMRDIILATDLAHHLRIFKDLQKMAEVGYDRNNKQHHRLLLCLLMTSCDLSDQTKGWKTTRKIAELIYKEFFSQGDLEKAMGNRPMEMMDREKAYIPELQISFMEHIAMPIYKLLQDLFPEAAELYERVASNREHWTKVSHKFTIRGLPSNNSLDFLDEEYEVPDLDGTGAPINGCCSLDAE

Chain of human PDE2A1 (O00408 other isoform, or with tags, fused parts or gaps): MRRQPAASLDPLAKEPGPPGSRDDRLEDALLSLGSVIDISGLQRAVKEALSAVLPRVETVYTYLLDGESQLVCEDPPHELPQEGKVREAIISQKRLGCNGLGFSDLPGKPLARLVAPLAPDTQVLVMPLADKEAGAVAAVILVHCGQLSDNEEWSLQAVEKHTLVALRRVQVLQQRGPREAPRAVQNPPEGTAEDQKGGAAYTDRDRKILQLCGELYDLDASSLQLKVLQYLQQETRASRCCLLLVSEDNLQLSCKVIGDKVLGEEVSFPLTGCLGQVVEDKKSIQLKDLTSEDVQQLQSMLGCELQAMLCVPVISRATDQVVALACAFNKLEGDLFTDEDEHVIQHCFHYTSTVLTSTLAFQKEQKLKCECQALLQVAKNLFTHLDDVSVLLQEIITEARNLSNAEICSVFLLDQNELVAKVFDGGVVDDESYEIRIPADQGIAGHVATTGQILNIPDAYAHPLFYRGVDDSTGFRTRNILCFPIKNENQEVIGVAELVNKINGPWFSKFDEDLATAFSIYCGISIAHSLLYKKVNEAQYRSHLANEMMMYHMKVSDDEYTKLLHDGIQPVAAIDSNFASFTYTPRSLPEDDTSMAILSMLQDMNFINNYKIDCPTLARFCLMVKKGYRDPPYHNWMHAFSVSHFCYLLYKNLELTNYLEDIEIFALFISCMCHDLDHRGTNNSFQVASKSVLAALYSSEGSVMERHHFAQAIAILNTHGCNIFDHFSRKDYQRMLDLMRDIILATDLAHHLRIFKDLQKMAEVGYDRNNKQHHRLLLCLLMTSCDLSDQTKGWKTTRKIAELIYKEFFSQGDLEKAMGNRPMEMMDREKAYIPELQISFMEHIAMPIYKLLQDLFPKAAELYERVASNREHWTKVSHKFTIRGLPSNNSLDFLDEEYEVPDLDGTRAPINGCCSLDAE

Row | Compound | Ki (human PDE2A1) | Ki (Rhesus PDE2A3)
1 | CC(C)C(c1ccc(C(F)(F)F)c(F)c1)n1nc(CO)c2c(=O)[nH]c(N(C)C)nc21 (single isomer, unassigned) [Example 142, (R)- or (S)-6-(Dimethylamino)-1-(1-(3-fluoro-4-(trifluoromethyl)phenyl)-2-methylpropyl)-3-(hydroxymethyl)-1H-pyrazolo[3,4-d]pyrimidin-4(5H)-one] | 0.19 nM | 0.29 nM
2 | CC(C)C(c1ccc(C(F)(F)F)c(F)c1)n1nc(CO)c2c(=O)[nH]c(N(C)C)nc21 (single isomer, unassigned) [Example 143, (S)- or (R)-6-(Dimethylamino)-1-(1-(3-fluoro-4-(trifluoromethyl)phenyl)-2-methylpropyl)-3-(hydroxymethyl)-1H-pyrazolo[3,4-d]pyrimidin-4(5H)-one] | 0.068 nM | 0.063 nM
3 | CCC(c1ccc(C(F)(F)F)c(F)c1)n1nc(CO)c2c(=O)[nH]c(N(C)C)nc21 (single isomer, unassigned) [Example 144, (R)- or (S)-6-(Dimethylamino)-1-(1-(3-fluoro-4-(trifluoromethyl)phenyl)propyl)-3-(hydroxymethyl)-1H-pyrazolo[3,4-d]pyrimidin-4(5H)-one] | 1.7 nM | 3.1 nM
4 | CCC(c1ccc(C(F)(F)F)c(F)c1)n1nc(CO)c2c(=O)[nH]c(N(C)C)nc21 (single isomer, unassigned) [Example 145, (S)- or (R)-6-(Dimethylamino)-1-(1-(3-fluoro-4-(trifluoromethyl)phenyl)propyl)-3-(hydroxymethyl)-1H-pyrazolo[3,4-d]pyrimidin-4(5H)-one] | 0.11 nM | 0.13 nM
5 | CC(c1ccc(OC(F)(F)F)cc1)n1nc(CO)c2c(=O)[nH]c(N(C)C)nc21 (single isomer, unassigned) [Example 148, (R)- or (S)-6-(Dimethylamino)-3-(hydroxymethyl)-1-(1-(4-(trifluoromethoxy)phenyl)ethyl)-1H-pyrazolo[3,4-d]pyrimidin-4(5H)-one] | 2.6 nM | 3.3 nM
6 | CC(c1ccc(OC(F)(F)F)cc1)n1nc(CO)c2c(=O)[nH]c(N(C)C)nc21 (single isomer, unassigned) [Example 149, (S)- or (R)-6-(Dimethylamino)-3-(hydroxymethyl)-1-(1-(4-(trifluoromethoxy)phenyl)ethyl)-1H-pyrazolo[3,4-d]pyrimidin-4(5H)-one] | 0.51 nM | 0.46 nM
7 | CC(C)C(c1ccc(C(F)(F)F)cc1)n1nc(CF)c2c(=O)[nH]c(N(C)C)nc21 (single isomer, unassigned) [Example 163] | 0.056 nM | 0.07 nM
8 | CC(c1ccc(OC(F)(F)F)cc1)n1nc(CF)c2c(=O)[nH]c(N(C)C)nc21 (single isomer, unassigned) [Example 165, (S)- or (R)-6-(Dimethylamino)-3-(fluoromethyl)-1-(1-(4-(trifluoromethoxy)phenyl)ethyl)-1H-pyrazolo[3,4-d]pyrimidin-4(5H)-one] | 0.33 nM | 0.28 nM
9 | CC(c1ccc(C(F)(F)F)c(F)c1)n1nc(CF)c2c(=O)[nH]c(N(C)C)nc21 (single isomer, unassigned) [Example 168, (R)- or (S)-6-(Dimethylamino)-1-(1-(3-fluoro-4-(trifluoromethyl)phenyl)ethyl)-3-(fluoromethyl)-1H-pyrazolo[3,4-d]pyrimidin-4(5H)-one] | 5.3 nM | 8.1 nM
10 | CC(c1ccc(C(C)(C)C)cc1)n1nc(CF)c2c(=O)[nH]c(N(C)C)nc21 (single isomer, unassigned) [Example 170, (R)- or (S)-1-(1-(4-tert-Butylphenyl(ethyl)-6-(dimethylamino)-3-(fluoromethyl)-1H-pyrazolo[3,4-d]pyrimidin-4(5H)-one] | 7.6 nM | 11 nM
11 | CCC(c1ccc(C(F)(F)F)cc1)n1nc(CF)c2c(=O)[nH]c(N(C)C)nc21 (single isomer, unassigned) [Example 173, (S)- or (R)-6-(Dimethylamino)-3-(fluoromethyl)-1-(1-(4-(trifluoromethyl)phenyl)propyl)-1H-pyrazolo[3,4-d]pyrimidin-4(5H)-one] | 0.063 nM | 0.096 nM
12 | CC(C)c1ccc(C(C(C)C)n2nc(CF)c3c(=O)[nH]c(N(C)C)nc32)cc1 (single isomer, unassigned) [Example 176, (R)- or (S)-6-(Dimethylamino)-3-(fluoromethyl)-1-(1-(4-isopropylphenyl)-2-methylpropyl)-1H-pyrazolo[3,4-d]pyrimidin-4(5H)-one] | 0.23 nM | 0.28 nM

Second part, the molecule after the results:

Row | Ki (human PDE2A1) | Ki (Rhesus PDE2A3) | Compound
13 | 0.56 nM | 0.64 nM | CN(C)c1nc2c(c(CO)nn2C(c2ccc(C(C)(F)F)cc2)C2CC2)c(=O)[nH]1 (single isomer, unassigned) [Example 141, (S)- or (R)-1-(Cyclopropyl(4-(1,1-difluoroethyl)phenyl)methyl)-6-(dimethylamino)-3-(hydroxymethyl)-1H-pyrazolo[3,4-d]pyrimidin-4(5H)-one]
14 | 0.12 nM | 0.12 nM | CN(C)c1nc2c(c(CO)nn2C(c2ccc(C(F)(F)F)c(F)c2)C2CC2)c(=O)[nH]1 (single isomer, unassigned) [Example 150, (R)- or (S)-1-(Cyclopropyl(3-fluoro-4-(trifluoromelhyl)phenyl)methyl)-6-(dimethylamino)-3-(hydroxymethyl)-1H-pyrazolo[3,4-d]pyrimidin-4(5H)-one]
15 | 0.61 nM | 0.79 nM | CN(C)c1nc2c(c(CO)nn2C(c2ccc(C(F)(F)F)c(F)c2)C2CC2)c(=O)[nH]1 (single isomer, unassigned) [Example 151, (S)- or (R)-1-(Cyclopropyl(3-fluoro-4-(trifluoromethyl)phenyl)methyl)-6-(dimethylamino)-3-(hydroxymethyl)-1H-pyrazolo[3,4-d]pyrimidin-4(5H)-one]
16 | 0.57 nM | 0.97 nM | CN(C)c1nc2c(c(CO)nn2C(c2ccc(C(F)F)c(F)c2)C2CC2)c(=O)[nH]1 (single isomer, unassigned) [Example 152, (R)- or (S)-1-(Cyclopropyl(4-(difluoromethyl)-3-fluorophenyl)methyl)-6-(dimethylamino)-3-(hydroxymethyl)-1H-pyrazolo[3,4-d]pyrimidin-4(5H)-one]
17 | 0.54 nM | 0.63 nM | CC(C)C(c1ccc(C(F)(F)F)cc1)n1nc(CF)c2c(=O)[nH]c(N(C)C)nc21 (single isomer, unassigned) [Example 162]
18 | 1.7 nM | 2 nM | CC(c1ccc(OC(F)(F)F)cc1)n1nc(CF)c2c(=O)[nH]c(N(C)C)nc21 (single isomer, unassigned) [Example 164, (R)- or (S)-6-(Dimethylammo)-3-(fluoromethyl)-1-(1-(4-(trifluoromethoxy)phenyl)ethyl)-1H-pyrazolo[3,4-d]pyrimidin-4(5H)-one]
19 | 0.61 nM | 0.91 nM | CC(c1ccc(OC(F)(F)F)c(F)c1)n1nc(CF)c2c(=O)[nH]c(N(C)C)nc21 (single isomer, unassigned) [Example 166, (R)- or (S)-6-(Dimethylamino)-1-(1-(3-fluoro-4-(trifluoromethoxy)phenyl)ethyl)-3-(fluoromethyl)-1H-pyrazolo[3,4-d]pyrimidin-4(5H)-one]
20 | 0.2 nM | 0.18 nM | CC(c1ccc(OC(F)(F)F)c(F)c1)n1nc(CF)c2c(=O)[nH]c(N(C)C)nc21 (single isomer, unassigned) [Example 167, (S)- or (R)-6-(Dimethylamino)-1-(1-(3-fluoro-4-(trifluoromethoxy)phenyl)ethyl)-3-(fluoromethyl)-1H-pyrazolo[3,4-d]pyrimidin-4(5H)-one]
21 | 0.099 nM | 0.2 nM | CC(c1ccc(C(F)(F)F)c(F)c1)n1nc(CF)c2c(=O)[nH]c(N(C)C)nc21 (single isomer, unassigned) [Example 169, (S)- or (R)-6-(Dimethylamino)-1-(1-(3-fluoro-4-(trifluoromethyl)phenyl)ethyl)-3-(fluoromethyl)-1H-pyrazolo[3,4-d]pyrimidin-4(5H)-one]
22 | 0.2 nM | 0.24 nM | CC(c1ccc(C(C)(C)C)cc1)n1nc(CF)c2c(=O)[nH]c(N(C)C)nc21 (single isomer, unassigned) [Example 171, (S)- or (R)-1-(1-(4-tert-Butylphenyl)ethyl)-6-(dimethylamino)-3-(fluoromethyl)-1H-pyrazolo[3,4-d]pyrimidin-4(5H)-one]
23 | 0.047 nM | 0.058 nM | CC(C)c1ccc(C(C(C)C)n2nc(CF)c3c(=O)[nH]c(N(C)C)nc32)cc1 (single isomer, unassigned) [Example 177, (S)- or (R)-6-(Dimethylamino)-3-(fluoromethyl)-1-(1-(4-isopropylphenyl)-2-methylpropyl)-1H-pyrazolo[3,4-d]pyrimidin-4(5H)-one]
24 | 0.072 nM | 0.072 nM | CN(C)c1nc2c(c(CF)nn2C(c2ccc(C(F)(F)F)cc2)C2CC2)c(=O)[nH]1 (single isomer, unassigned) [Example 179, (S)- or (R)-1-(Cyclopropyl(4-(trifluoromethyl)phenyl)methyl)-6-(dimethylamino)-3-(fluoromethyl)-1H-pyrazolo[3,4-d]pyrimidin-4(5H)-one]
25 | 0.058 nM | 0.11 nM | CN(C)c1nc2c(c(CF)nn2C(c2ccc(C(F)(F)F)c(F)c2)C2CC2)c(=O)[nH]1 (single isomer, unassigned) [Example 181, (S)- or (R)-1-(Cyclopropyl(3-fluoro-4-(trifluoromethyl)phenyl)methyl)-6-(dimethylamino)-3-(fluoromethyl)-1H-pyrazolo[3,4-d]pyrimidin-4(5H)-one]

Reference: patent US10174037B2, “Dihydropyrazolopyrimidinone compounds as PDE2 inhibitors” (Merck Sharp & Dohme Corp., priority 2015, dated 2019)
